The format of series [1] is physicochemical. The note with it: pH 7.
Series [2] concerns legionella bacteria. The format is cell-based. The note with it: initial 10^7 CFU/100 mL, after 24 hours, 36° C., pH 7.0.

As for `Cn1sc(Cl)cc1=O` [Sample 17, 5-chloro-2-methyl-4-isothiazoline-3-one], in series [1], the “Residual concentration Cl2 (monochlorosulfamic acid as Cl2)” value is 0 mg/L and the “Residual concentration Cl-MIT” value worked out at 600.0 µg/L.
The matching figures for `Cn1sc(Cl)cc1=O` [Sample 19, 5-chloro-2-methyl-4-isothiazoline-3-one]: 0 mg/L and 1500.0 µg/L.
`Cn1sc(Cl)cc1=O` [Sample 11, 5-chloro-2-methyl-4-isothiazoline-3-one]: in series [1], the “Residual concentration Cl2 (monochlorosulfamic acid as Cl2)” value was determined as 0 mg/L and the “Residual concentration Cl-MIT” value was 2.1 µg/L. In series [2], the Sterilizing rate was 100%.

The record behind these values is US10765115B2 (priority 2015, dated 2020).
